Some test systems named below: K-562 leukemia; HCT-15 colon; 786-0 renal; A549 NSCLC; NCI-H226 lung; CAKI-1 renal; CCRF-CEM leukemia; OVCAR-5 ovarian; MDA-MB-231 breast; BT-549 breast.
Holding throughout (experiment): NCI anticancer screen, dose series, 48 h

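Protocol summary: plate cells (96-well), add compound at 5 concentrations, incubate 48 h, interpolate endpoints linearly. Here, GI50 denotes the concentration required for 50% inhibition of growth. TGI denotes the concentration required for complete inhibition of growth.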

Consider `COc1cc(OC)c(/C=C/c2cnc3ccccc3n2)c(OC)c1`, for which the TGI in the experiment with K-562 leukemia, in the experiment with HCT-15 colon, in the experiment with 786-0 renal, in the experiment with A549 NSCLC, in the experiment with NCI-H226 lung and in the experiment on CAKI-1 renal was above 10 µM each time. The TGI with CCRF-CEM leukemia, in the experiment on OVCAR-5 ovarian, with MDA-MB-231 breast and with BT-549 breast was above 10 µM throughout.
Regarding `COc1ccc2c(c1)C(=O)c1c-2c(Nc2ccc(Cl)cc2)nc2ccccc12`, the GI50 with K-562 leukemia is 71.6 µM; in the experiment with HCT-15 colon, 42.3 µM; with 786-0 renal, 4.15 µM; in the experiment with A549 NSCLC, 13.3 µM; with NCI-H226 lung it was 10.3 µM; in the experiment with CAKI-1 renal, 20.4 µM. For the same molecule, the GI50 in the experiment on CCRF-CEM leukemia was 32 µM; in the experiment with OVCAR-5 ovarian, 22.3 µM; in the experiment on MDA-MB-231 breast it was 4.46 µM; in the experiment with BT-549 breast, 8.46 µM. Moreover, the TGI in the experiment on K-562 leukemia was above 100 µM; in the experiment on HCT-15 colon, above 100 µM; in the experiment on 786-0 renal it was 16 µM; in the experiment on A549 NSCLC it was 39.7 µM; in the experiment on NCI-H226 lung, 50 µM; in the experiment on CAKI-1 renal, above 100 µM. Besides, the TGI in the experiment on CCRF-CEM leukemia is above 100 µM; in the experiment on OVCAR-5 ovarian, 84.1 µM; with MDA-MB-231 breast it was 18.9 µM; with BT-549 breast, 27.7 µM.
As to `COc1ccc(OC)c(/C=C(/C)[N+](=O)[O-])c1`, the GI50 in the experiment with K-562 leukemia is 2.57 µM; in the experiment on HCT-15 colon, 1.74 µM; with 786-0 renal, 1.94 µM; in the experiment on A549 NSCLC, 4.54 µM; with NCI-H226 lung, 13.8 µM; in the experiment on CAKI-1 renal it was 1.29 µM. For the same molecule, the GI50 in the experiment with CCRF-CEM leukemia was 2.66 µM; in the experiment with OVCAR-5 ovarian, 3.13 µM; in the experiment on MDA-MB-231 breast it was 2.71 µM; in the experiment with BT-549 breast, 5.4 µM. Moreover, the TGI is above 100 µM in the experiment on K-562 leukemia; 3.68 µM with HCT-15 colon; 3.48 µM with 786-0 renal; 17.5 µM in the experiment on A549 NSCLC; 27.9 µM in the experiment with NCI-H226 lung; 2.77 µM with CAKI-1 renal. Besides, the TGI with CCRF-CEM leukemia was above 100 µM; in the experiment with OVCAR-5 ovarian, 10.7 µM; in the experiment on MDA-MB-231 breast, 7.45 µM; in the experiment on BT-549 breast, 18.5 µM.
In the case of `Nc1nc(-c2ccccc2)nc2c1[n+]([O-])c1ccccc1[n+]2[O-]`, the TGI with K-562 leukemia, in the experiment with HCT-15 colon, in the experiment on 786-0 renal, with A549 NSCLC, in the experiment on NCI-H226 lung and in the experiment on CAKI-1 renal was above 100 µM throughout. Further, the TGI in the experiment on CCRF-CEM leukemia, with OVCAR-5 ovarian, with MDA-MB-231 breast and in the experiment on BT-549 breast was above 100 µM throughout.
With `COc1cc2c3c(n(CCCI)c(=O)c2cc1OC)-c1cc2c(cc1C3=O)OCO2`, the GI50 with K-562 leukemia is 2.27 µM; with HCT-15 colon it was 0.475 µM; in the experiment with 786-0 renal, 1.37 µM; in the experiment with A549 NSCLC it was 2.5 µM; with NCI-H226 lung it was 2.05 µM; with CAKI-1 renal it was 0.454 µM. The GI50 is 0.873 µM in the experiment on CCRF-CEM leukemia, above 100 µM in the experiment on OVCAR-5 ovarian, 18.7 µM in the experiment on MDA-MB-231 breast and 1.82 µM in the experiment with BT-549 breast. Besides, the TGI with K-562 leukemia is above 100 µM; with HCT-15 colon it was above 100 µM; in the experiment with 786-0 renal, above 100 µM; with A549 NSCLC, above 100 µM; in the experiment with NCI-H226 lung it was 7.88 µM; in the experiment on CAKI-1 renal, above 100 µM. Moreover, the TGI in the experiment on CCRF-CEM leukemia was above 100 µM; with OVCAR-5 ovarian, above 100 µM; with MDA-MB-231 breast, above 100 µM; with BT-549 breast, 9.44 µM.
As to `CCNC(=O)c1cc2c(-c3cc(C(C)(C)O)ccc3Oc3c(C)cc(F)cc3C)cn(C)c(=O)c2[nH]1`, the GI50 in the experiment with K-562 leukemia is 1.86 µM; with HCT-15 colon, 1.84 µM; in the experiment on 786-0 renal, 1.15 µM; with A549 NSCLC it was 2.1 µM; in the experiment on NCI-H226 lung it was 2.64 µM; in the experiment with CAKI-1 renal, 0.875 µM. The GI50 in the experiment on CCRF-CEM leukemia was 2.21 µM; in the experiment with OVCAR-5 ovarian, 1.63 µM; in the experiment on MDA-MB-231 breast, 1.08 µM; in the experiment with BT-549 breast it was 2.01 µM. The TGI with K-562 leukemia was above 100 µM; in the experiment on HCT-15 colon, 14.2 µM; in the experiment on 786-0 renal it was 19.2 µM; in the experiment on A549 NSCLC it was 14.6 µM; in the experiment on NCI-H226 lung it was 14.9 µM; in the experiment with CAKI-1 renal it was 13.2 µM. The TGI is 23.9 µM with CCRF-CEM leukemia, 16.2 µM in the experiment on OVCAR-5 ovarian, 15.9 µM in the experiment with MDA-MB-231 breast and 11.4 µM in the experiment on BT-549 breast.
For the molecule `CCN(C(=O)c1cc(F)ccc1Oc1cncnc1N1CC2(CCN(CC3CCC(NS(=O)(=O)CC)CC3)CC2)C1)C(C)C` (stereo not given), the GI50 in the experiment with K-562 leukemia, in the experiment on HCT-15 colon, with 786-0 renal, with A549 NSCLC, with NCI-H226 lung and in the experiment on CAKI-1 renal was above 100 µM in each case. Moreover, the GI50 with CCRF-CEM leukemia, with OVCAR-5 ovarian, in the experiment with MDA-MB-231 breast and in the experiment with BT-549 breast was above 100 µM each time. Besides, the TGI with K-562 leukemia, with HCT-15 colon, in the experiment with 786-0 renal, in the experiment on A549 NSCLC, in the experiment on NCI-H226 lung and in the experiment on CAKI-1 renal was above 100 µM throughout. The TGI in the experiment on CCRF-CEM leukemia, in the experiment on OVCAR-5 ovarian, in the experiment with MDA-MB-231 breast and in the experiment on BT-549 breast was above 100 µM each time.

The values are drawn from PubChem BioAssay (NCI).
